According to patent publication US20240409527A1, “INHIBITORS OF ALPHA-5 BETA-1 INTEGRIN AND USES THEREOF” (The Regents of the University of California, priority 2022, published 2024):

Target: α5β1 integrin (Homo sapiens, UniProt P05556+P08648)
Test: IC50 for the selected compounds (assay not described)

Chain of α5β1 integrin (P08648 42-894 limits assumed): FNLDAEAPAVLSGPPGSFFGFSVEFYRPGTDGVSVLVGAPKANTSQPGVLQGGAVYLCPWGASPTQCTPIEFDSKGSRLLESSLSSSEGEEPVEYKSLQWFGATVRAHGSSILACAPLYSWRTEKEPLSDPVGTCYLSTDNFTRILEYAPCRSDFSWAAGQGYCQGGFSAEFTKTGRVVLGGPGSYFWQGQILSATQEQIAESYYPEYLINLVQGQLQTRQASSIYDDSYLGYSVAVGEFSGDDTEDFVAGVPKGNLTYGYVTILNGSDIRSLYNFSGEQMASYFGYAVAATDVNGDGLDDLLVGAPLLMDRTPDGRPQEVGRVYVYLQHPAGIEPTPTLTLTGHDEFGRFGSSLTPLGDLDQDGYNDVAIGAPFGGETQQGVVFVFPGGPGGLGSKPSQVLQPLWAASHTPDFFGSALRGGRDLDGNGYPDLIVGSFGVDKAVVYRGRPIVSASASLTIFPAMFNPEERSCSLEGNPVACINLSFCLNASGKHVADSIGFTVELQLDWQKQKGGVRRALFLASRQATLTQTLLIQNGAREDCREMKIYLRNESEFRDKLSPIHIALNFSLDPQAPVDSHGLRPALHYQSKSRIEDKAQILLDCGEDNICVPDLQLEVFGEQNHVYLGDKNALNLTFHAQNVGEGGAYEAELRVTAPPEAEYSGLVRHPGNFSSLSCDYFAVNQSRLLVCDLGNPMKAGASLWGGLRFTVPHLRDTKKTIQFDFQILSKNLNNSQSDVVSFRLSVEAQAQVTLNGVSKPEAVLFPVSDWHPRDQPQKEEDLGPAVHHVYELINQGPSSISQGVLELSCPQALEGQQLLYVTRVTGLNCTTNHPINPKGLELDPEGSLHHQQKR
Chain of α5β1 integrin (P05556 21-798): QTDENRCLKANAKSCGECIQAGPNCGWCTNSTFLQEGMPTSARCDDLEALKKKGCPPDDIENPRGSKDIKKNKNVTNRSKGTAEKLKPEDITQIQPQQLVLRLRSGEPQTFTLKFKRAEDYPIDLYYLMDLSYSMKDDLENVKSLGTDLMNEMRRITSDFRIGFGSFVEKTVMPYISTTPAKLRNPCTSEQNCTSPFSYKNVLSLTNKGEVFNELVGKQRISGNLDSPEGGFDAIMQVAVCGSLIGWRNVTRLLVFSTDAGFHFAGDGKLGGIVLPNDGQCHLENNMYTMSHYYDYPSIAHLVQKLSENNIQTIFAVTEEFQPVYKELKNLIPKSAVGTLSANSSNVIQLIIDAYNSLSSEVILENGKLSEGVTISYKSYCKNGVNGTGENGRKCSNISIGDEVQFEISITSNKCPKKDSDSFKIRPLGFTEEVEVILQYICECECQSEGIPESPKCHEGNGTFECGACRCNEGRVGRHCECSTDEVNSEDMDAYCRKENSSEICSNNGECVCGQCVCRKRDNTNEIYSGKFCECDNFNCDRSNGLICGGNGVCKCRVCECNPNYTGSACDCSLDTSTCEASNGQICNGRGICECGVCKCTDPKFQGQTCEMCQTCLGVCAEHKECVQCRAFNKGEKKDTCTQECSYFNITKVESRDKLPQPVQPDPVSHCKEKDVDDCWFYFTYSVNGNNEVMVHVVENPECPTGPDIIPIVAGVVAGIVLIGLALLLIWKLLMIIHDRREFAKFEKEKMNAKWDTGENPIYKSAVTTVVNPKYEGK

Row | Structure (SMILES) | IC50 [µM]
1 | O=C(CNC(=O)c1cncc(NC2=NCCCN2)c1)NC[C@H](NC(=O)c1c(Cl)cc(-c2ccccc2)cc1Cl)C(=O)O [SU15210-00204-01, (S)-2-(3,5-dichlorobiphenyl-4-ylcarboxamido)-3-(2-(5-(1,4,5,6-tetrahydropyrimidin-2-ylamino)nicotinamido)acetamido)propanoic acid] | < 1
2 | O=C(CNC(=O)c1c[nH]c(=O)c(NC2=NCCCN2)c1)NC[C@H](NC(=O)c1c(Cl)cc(-c2ccccc2)cc1Cl)C(=O)O [SU15210-00206-01, (S)-2-(3,5-dichlorobiphenyl-4-ylcarboxamido)-3-(2-(6-oxo-5-(1,4,5,6-tetrahydropyrimidin-2-ylamino)-1,6-dihydropyridine-3-carboxamido)acetamido)propanoic acid] | < 1
